Test results reported in patent publication EP0667868B1, “CEPHEM COMPOUNDS” (FUJISAWA PHARMACEUTICAL CO., LTD., priority 1993, dated 1995).
Values after ≈ are worked out from the molar mass of the structure shown.

Tests used:
[1] = Urinary excretion after oral administration (disc-plate diffusion bioassay); format: in vivo, Male JCL SD strain rats; conditions: rat; rats, 20 mg /kg oral, suspended in 0.5% methyl cellulose; urine 0 to 6 and 6 to 24 hours; Bacillus subtilis ATCC 6633 as test organism; read-out: Urinary recovery in 24 hours
Description: Male JCL SD strain rats (age, 6-7 weeks) were used. Test compound was suspended in 0.5% methyl cellulose solution. The rats were starved overnight before dosing with 20 mg /kg. Urine samples were collected at 0 to 6 and 6 to 24 hours after oral administration were measured by the disc-plate diffusion method using Bacillus subtilis ATCC 6633 as test organism and sodium citrate agar (0.8% sodium citrate, 0.5% polypeptone, 0.3% beef extract and 1.0% agar) as the test medium. The plate were incubated at 37°C for 18 hours and the zone of inhibition were measured.

H. influenzae = test: Minimal inhibitory concentration, two-fold agar-plate dilution method; format: cell-based; conditions: Haemophilus influenzae, HI-agar, 37°C for 20 hours
Description: (§1) In vitro antibacterial activity was determined by the two-fold agar-plate dilution method as described below.
(§2) One loopful of an overnight culture of each test strain in Trypticase-soy broth (10^8 viable cells per ml) was streaked on heart infusion agar (HI-agar)containing graded concentrations of representative test compound, and the minimal inhibitory concentration (MIC) was expressed in terms of µg/ml after incubation at 37°C for 20 hours.

E. coli = test: as above; format: cell-based; conditions: Escherichia coli, HI-agar, 37°C for 20 hours
Description: as §1, §2

S. aureus = test: as above; format: cell-based; conditions: Staphylococcus aureus, HI-agar, 37°C for 20 hours
Description: as §1, §2

Compound: Nc1nc(/C(=N/O)C(=O)N[C@@H]2C(=O)N3C(C(=O)O)=C(SCc4cn[nH]c4)CS[C@H]23)cs1 [(3), 7β-[2-(2-Aminothiazol-4-yl)-2-(Z)-(hydroxyimino)-acetamido]-3-[(pyrazol-4-yl)methylthio]-3-cephem-4-carboxylic acid]
- dose excreted at 24 h [1]: 50%
- MIC (H. influenzae): 0.129 µg/mL (≈ 0.268 µM)
- MIC (E. coli): 0.033 µg/mL (≈ 0.0685 µM)
- MIC (S. aureus): 0.23 µg/mL (≈ 0.478 µM)

Compound: Nc1nc(/C(=N/O)C(=O)N[C@@H]2C(=O)N3C(C(=O)O)=C(SCc4ccncc4)CS[C@H]23)cs1 [Comparative (1), 7β-[2-(2-Aminothiazol-4-yl)-2-(Z)-(hydroxyimino)-acetamido]-3-[(4-pyridyl)methylthio]-3-cephem-4-carboxylic acid]
- MIC (H. influenzae): 0.067 µg/mL (≈ 0.136 µM)
- MIC (E. coli): 0.061 µg/mL (≈ 0.124 µM)
- MIC (S. aureus): 0.143 µg/mL (≈ 0.29 µM)

Compound: Cc1nnsc1CSC1=C(C(=O)O)N2C(=O)[C@@H](NC(=O)/C(=N\O)c3csc(N)n3)[C@H]2SC1 [Comparative (2), 7β-[2-(2-Aminothiazol-4-yl)-2-(Z)-(hydroxyimino)-acetamido]-3-[(4-methyl-1,2,3-thiadiazol-5-yl)methylthio]-3-cephem-4-carboxylic acid]
- MIC (H. influenzae): 0.118 µg/mL (≈ 0.23 µM)
- MIC (E. coli): 0.072 µg/mL (≈ 0.14 µM)
- MIC (S. aureus): 0.167 µg/mL (≈ 0.325 µM)
